According to patent US4454136A, “Substituted benzopyranotriazoles and antiallergic use” (Beecham Group Limited, priority 1980, dated 1984):

Test system: rat PCA
Assay: Passive Cutaneous Anaphylaxis (PCA) in rats
Assay type: in vivo, Male Wistar rats
Conditions: sc
Method: Serum containing heat-labile homocytotropic antibody was raised in rats to crystallized ovalbumin XOA by the method of Mota (I. Mota, Immunology, 7, 681, (1964)) using Bordettela pertussis vaccine as adjuvant.
Passive cutaneous anaphylaxis (PCA) was carried out by a method based on that of Ovary and Bier, (A. Ovary and O. G. Bier, Proc. Soc. Exp. Bio. Med 81, 584, (1952)) as modified by Goose and Blair. (Immunology 16, 749 (1969)).
Male Wistar rats of 250-300 g were give 0.1 ml of each of six twofold serial dilutions of pooled antiserum in 0.9% saline injected intradermally into separate sites on their shaved backs. Later (72 hours) the animals were challenged by intravenous injection of 0.3 ml of a 1% solution of ovalbumin in an isotonic solution of saline buffered with 0.05 M, pH 7.2, Sorenson Buffer (PBS), mixed with 0.2 ml of a 5% solution of Pontamine Sky Blue (6BX C.I. 24410, Raymond A. Lamb, London) in isotonic saline. The rats were killed after 20 minutes and the diameter of the blue wheals at the antibody injection sites were measured on the outer surface of the skin. The starting dilution of the serum was adjusted so that there was no response, after challenge, at the injection site of the highest dilution and a maximum response at the lowest dilutions. Typically six twofold serial dilutions of the serum from 1/4 to 1/128 were used.
Compounds were tested for their ability to reduce the diameter of the wheals at those intradermal sites which in control animals gave less than maximum response. Each dose of the compound was administered to six rats at a measured time prior to intravenous challenge with ovalbumin. Control groups of six rats were given the same volume (0.2 ml: 100 g^-1) of carrier fluid at the same time prior to the challenge.
The results were calculated as follows: % inhibition of PCA=100 (1-a/b) where a=the sum of the diameters of the wheals produced in the test animal at the sites of antibody dilutions as used in control groups and b=the mean sum of the diameters of the wheals produced in the control groups of animals at those antibody sites where at least five out of six of the animals gave less than maximum response. A typical variation in the control group of animals was SEM±6%.
*Time between administration of compound and antigen challenge.

Compound: Cc1c(OS(C)(=O)=O)ccc2c(=O)c3[nH]nnc3oc12 [Example 1e, 6-Mesyloxy-5-methyl-9-oxo-1H,9H-benzopyran o[2,3-d]-v-triazole]
- % inhibition of rat PCA (PBS with NaHCO3, 10' before antigen challenge, 5 mg/kg): 42%
- % inhibition of rat PCA (PBS with NaHCO3, 10' before antigen challenge, 20 mg/kg): 57%
- % inhibition of rat PCA (PBS with NaHCO3, 30' before antigen challenge, 5 mg/kg): 18%
- % inhibition of rat PCA (PBS with NaHCO3, 30' before antigen challenge, 20 mg/kg): 41%

Compound: Cc1c(O)ccc2c(=O)c3[nH]nnc3oc12 [Example 1f, 6-Hydroxy-5-methyl-9-oxo-1H,9H-benzopyrano[2,3-d]-v-triazole]
- % inhibition of rat PCA (PBS with NaHCO3, 10' before antigen challenge, 10 mg/kg): 32%
- % inhibition of rat PCA (PBS with NaHCO3, 30' before antigen challenge, 10 mg/kg): 19%
